Results on one compound are retold here after ChEMBL document CHEMBL5727966, “Compositions and methods for treating disorders of circadian and diurnal rhythms using prokineticin 2 agonists and antagonists” (2020).

A short description of the assay: Aequorin-Based Luminescent Assay : An aequorin-based luminescent assay for calcium mobilization was used to measure mobilization of intracellular Ca2+ (Bullock et al., Mol Pharmacol 65, 582-588, 2004). Chinese hamster ovary (CHO) cells stably expressing photoprotein aequorin and recombinant PKR1 or PKR2 were tested by this method. Briefly, the cells were charged in Opti-MEM™ (Invitrogen) containing 8 μM of coelenterazine cp at 37° C. for 2 hours. Cells were detached by brief trypsinization and maintained in Hank's Balanced Salt Solution (HBSS) plus 10 mM HEPES (pH7.5) and 0.1% BSA at about 5×10^5 cells/ml. Luminescence measurements were made using a Berthold luminometer.All compounds were diluted in HBSS plus 10 mM HEPES (pH7.5) and 0.1% BSA. To test the agonist activity, 100 μl of cells were injected into the tubes with 20 μl of compounds. For antagonist assays, 80 μl cells were incubated in the tubes with 20 μl different concentrations of antagonists at room temperature for 20 minutes, and then 100 μl of recombinant PK2 were injected. The IC50 obtained from the assays were then converted to Ki values using the formula: IC50/(1+[PK2]/EC50PK2). It counts as cell-based.

As for `CC(C)CN(Cc1cc(Cl)c2c(c1)OCCCO2)C(=O)C1CN(Cc2cccc3nc[nH]c23)CCO1` (stereo unspecified), the Ki came out at 8.4 nM.
